In patent US8536180B2, “Pyrimidine inhibitors of kinase activity” (AbbVie Inc., priority 2009, dated 2013) one finds IC50 data, which are given here for 25 molecules.

In this test the target is T1, C-terminal GST-tagged, recombinant, human IGF-1R, amino acids 954-1367 (Homo sapiens, UniProt P08069).
T1 construct: human IGF-1R, amino acids 954-1367 expressed by baculovirus in Sf21 cells; GST (C); purchased Cell Signaling Technology; host or cells: baculovirus in Sf21 cells
The experiment in a line: IGF-1R homogenous time-resolved fluorescence (HTRF) in vitro kinase assay. The test is classed as biochemical. The settings on record: IGF-1R kinase, ATP 50 μM final, biotinylated peptide substrate 0.5 μM, 60 minutes at room temperature. Here is the method: IGF-1R kinase activity was assayed by a homogenous time-resolved fluorescence (HTRF) in vitro kinase assay (Mathis, G., HTRF(R) Technology. J Biomol Screen, 1999. 4(6): p. 309-314). Specifically, 10 μL C-terminal GST-tagged, recombinant, human IGF-1R, amino acids 954-1367 expressed by baculovirus in Sf21 cells (Cell Signaling Technology) was mixed with 10 μL inhibitor (various concentrations, 2% final DMSO) and 10 μL of ATP (50 μM final concentration) in reaction buffer (50 mM HEPES, pH 7.5, 10 mM MgCl2, 2 mM MnCl2, 0.1% BSA and 1 mM DTT, 40 μL final volume). The reaction was initiated by addition of 10 μL of biotinylated peptide substrate (Biotin-Ahx-[…], 0.5 μM final concentration) in a black 384-well plate (Packard). After 60 minutes incubation at room temperature, the reaction was quenched by addition of 60 μL stop/revelation buffer to give 30 mM EDTA, 1 μg/mL streptavidin-APC (Prozyme), 50 ng/mL anti-phosphotyrosine mAb PT66-K Europium Cryptate, 30 mM HEPES, pH 7.5, 120 mM KF, 0.005% Tween-20, 0.05% BSA). The quenched reaction was allowed to stand at room temperature for 1 hour and then read in a time-resolved fluorescence detector (Envision, Perkin Elmer) at 615 nm and 665 nm simultaneously. The ratio between the signal of 615 nm and 665 nm was used in the calculation of the IC50.

Where only a bound is given, the exact number is not on record here.

T1 sequence (P08069 954-1367): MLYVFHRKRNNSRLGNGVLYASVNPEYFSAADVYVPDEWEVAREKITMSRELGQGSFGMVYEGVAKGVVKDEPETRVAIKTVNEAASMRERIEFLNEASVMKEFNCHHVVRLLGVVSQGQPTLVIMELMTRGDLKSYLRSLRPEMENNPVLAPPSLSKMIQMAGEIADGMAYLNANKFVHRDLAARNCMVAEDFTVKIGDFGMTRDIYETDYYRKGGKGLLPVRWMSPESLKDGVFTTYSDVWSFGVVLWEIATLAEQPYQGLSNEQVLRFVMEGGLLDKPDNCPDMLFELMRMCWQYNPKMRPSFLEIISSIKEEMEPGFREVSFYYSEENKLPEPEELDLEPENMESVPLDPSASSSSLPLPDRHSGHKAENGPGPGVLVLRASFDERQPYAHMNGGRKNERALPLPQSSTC

As usually defined, the IC50 is the concentration needed to halve the response being measured. Turning to `COc1cc(N2CCOCC2)ccc1Nc1nccc(-c2c(-c3ccc4nc(-c5ccccc5)[nH]c4c3)nc3ccccn23)n1` [Example 27, N-(2-methoxy-4-morpholin-4-ylphenyl)-4-[2-(2-phenyl-1H-benzimidazol-6-yl)imidazo[1,2-a]pyridin-3-yl]pyrimidin-2-amine], the 50% inhibitory concentration (IC50) is 10 to 50 nM.
With `O=c1[nH]cccc1Nc1nccc(-c2c(-c3ccc4[nH]c(Cc5ccccc5)nc4c3)nc3ccccn23)n1` [Example 29, 3-({4-[2-(2-benzyl-1H-benzimidazol-5-yl)imidazo[1,2-a]pyridin-3-yl]pyrimidin-2-yl}amino)pyridin-2(1H)-one], the IC50 fell in the range of 101 to 500 nM.
Under `COc1cc(N2CCC(N(C)C)CC2)ccc1Nc1nccc(-c2c(-c3ccc4nc(Cc5ccccc5)[nH]c4c3)nc3sccn23)n1` [Example 30, 4-[6-(2-benzyl-1H-benzimidazol-6-yl)imidazo[2,1-b][1,3]thiazol-5-yl]-N-{4-[4-(dimethylamino)piperidin-1-yl]-2-methoxyphenyl}pyrimidin-2-amine] stands less than 10 nM; under `COc1cc(N(C)C)ccc1Nc1nccc(-c2c(-c3ccc4nc(Cc5ccccc5)[nH]c4c3)nc3sccn23)n1` [Example 31, N^1-{4-[6-(2-benzyl-1H-benzimidazol-6-yl)imidazo[2,1-b][1,3]thiazol-5-yl]pyrimidin-2-yl}-2-methoxy-N^4,N^4-dimethylbenzene-1,4-diamine], 10 to 50 nM; under `COc1cc(Cl)ccc1Nc1nccc(-c2c(-c3ccc4nc(Cc5ccccc5)[nH]c4c3)nc3ccccn23)n1` [Example 32, 4-[2-(2-benzyl-1H-benzimidazol-6-yl)imidazo[1,2-a]pyridin-3-yl]-N-(4-chloro-2-methoxyphenyl)pyrimidin-2-amine], 101 to 500 nM.
Turning to `COc1cc(N(C)C)ccc1Nc1nccc(-c2c(-c3ccc4nc(Cc5ccccc5Cl)[nH]c4c3)nc3sccn23)n1` [Example 33, N^1-(4-{6-[2-(2-chlorobenzyl)-1H-benzimidazol-6-yl]imidazo[2,1-b][1,3]thiazol-5-yl}pyrimidin-2-yl)-2-methoxy-N^4,N^4-dimethylbenzene-1,4-diamine], the half-inhibitory concentration (IC50) was in the range of 10 to 50 nM.
For `COc1ccccc1Cc1nc2ccc(-c3nc4sccn4c3-c3ccnc(Nc4ccc(N(C)C)cc4OC)n3)cc2[nH]1` [Example 34, 2-methoxy-N^1-(4-{6-[2-(2-methoxybenzyl)-1H-benzimidazol-6-yl]imidazo[2,1-b][1,3]thiazol-5-yl}pyrimidin-2-yl)-N^4,N^4-dimethylbenzene-1,4-diamine], the IC50 fell in the range of 10 to 50 nM.
Turning to `OCCn1cc(Nc2nccc(-c3c(-c4ccc5[nH]c(-c6ccccc6)nc5c4)nc4ccccn34)n2)cn1` [Example 36, 2-[4-({4-[2(2-phenyl-1H-benzimidazol-5-yl)imidazo[1,2-a]pyridin-3-yl]pyrimidin-2-yl}amino)-1H-pyrazol-1-yl]ethanol], the IC50 was 10 to 50 nM.
With `OCCn1cc(Nc2nccc(-c3c(-c4ccc5[nH]c(Cc6ccccc6)nc5c4)nc4ccccn34)n2)cn1` [Example 37, 2-[4-({4-[2(2-benzyl-1H-benzimidazol-5-yl)imidazo[1,2-a]pyridin-3-yl]pyrimidin-2-yl}amino)-1H-pyrazol-1-yl]ethanol], the half-maximal inhibitory concentration (IC50) lay in the range of 10 to 50 nM.
The result for `Fc1ccc(Nc2nccc(-c3c(-c4ccc5nc(-c6ccccc6)[nH]c5c4)nc4ccccn34)n2)cc1` [Example 38, N-(4-fluorophenyl)-4-[2-(2-phenyl-1H-benzimidazol-6-yl)imidazo[1,2-a]pyridin-3-yl]pyrimidin-2-amine] reads 101 to 500 nM.
`Fc1ccc(Nc2nccc(-c3c(-c4ccc5[nH]c(Cc6ccccc6)nc5c4)nc4ccccn34)n2)cc1` [Example 39, 4-[2-(2-benzyl-1H-benzimidazol-5-yl)imidazo[1,2-a]pyridin-3-yl]-N-(4-fluorophenyl)pyrimidin-2-amine]: the IC50 fell in the range of 51 to 100 nM.
Turning to `Fc1ccc(Nc2nccc(-c3c(-c4ccc5nc(-c6ccccc6)[nH]c5c4)nc4ccccn34)n2)c(F)c1` [Example 40, N-(2,4-difluorophenyl)-4-[2-(2-phenyl-1H-benzimidazol-6-yl)imidazo[1,2-a]pyridin-3-yl]pyrimidin-2-amine], the IC50 is greater than 500 nM.
On to `Fc1ccc(Nc2nccc(-c3c(-c4ccc5[nH]c(Cc6ccccc6)nc5c4)nc4ccccn34)n2)c(F)c1` [Example 41, 4-[2-(2-benzyl-1H-benzimidazol-5-yl)imidazo[1,2-a]pyridin-3-yl]-N-(2,4-difluorophenyl)pyrimidin-2-amine], for which the IC50 was 101 to 500 nM.
For `FC(F)(F)c1ccccc1Cc1nc2ccc(-c3nc4sccn4c3-c3ccnc(Nc4ccccc4CN4CCCC4)n3)cc2[nH]1` [Example 42, N-[2-(pyrrolidin-1-ylmethyl)phenyl]-4-(6-{2-[2-(trifluoromethyl)benzyl]-1H-benzimidazol-6-yl}imidazo[2,1-b][1,3]thiazol-5-yl)pyrimidin-2-amine], the IC50 is greater than 500 nM.
For the molecule `COc1ccc(S(C)(=O)=O)cc1Nc1nccc(-c2c(-c3ccc4nc(Cc5ccccc5)[nH]c4c3)nc3ccccn23)n1` [Example 43, 4-[2-(2-benzyl-1H-benzimidazol-6-yl)imidazo[1,2-a]pyridin-3-yl]-N-[2-methoxy-5-(methylsulfonyl)phenyl]pyrimidin-2-amine], the concentration for half-maximal inhibition (IC50) lay in the range of 10 to 50 nM.
Under `Cn1cc(Nc2nccc(-c3c(-c4ccc5[nH]c(-c6ccccc6)nc5c4)nc4ccccn34)n2)cn1` [Example 44, N-(1-methyl-1H-pyrazol-4-yl)-4-[2-(2-phenyl-1H-benzimidazol-5-yl)imidazo[1,2-a]pyridin-3-yl]pyrimidin-2-amine] stands greater than 500 nM; under `COc1ccc(C(F)(F)F)cc1Nc1nccc(-c2c(-c3ccc4nc(Cc5ccccc5)[nH]c4c3)nc3ccccn23)n1` [Example 45, 4-[2-(2-benzyl-1H-benzimidazol-6-yl)imidazo[1,2-a]pyridin-3-yl]-N-[2-methoxy-5-(trifluoromethyl)phenyl]pyrimidin-2-amine], 101 to 500 nM; under `CN(C)Cc1ccc(Nc2nccc(-c3c(-c4ccc5nc(Cc6ccccc6C(F)(F)F)[nH]c5c4)nc4sccn34)n2)cc1` [Example 46, N-{4-[(dimethylamino)methyl]phenyl}-4-(6-{2-[2-(trifluoromethyl)benzyl]-1H-benzimidazol-6-yl}imidazo[2,1-b][1,3]thiazol-5-yl)pyrimidin-2-amine], 10 to 50 nM.
As for `COc1cc(NCC(C)(C)O)ccc1Nc1nccc(-c2c(-c3ccc4[nH]c(Cc5ccccc5)nc4c3)nc3ccccn23)n1` [Example 47, 1-{[4-({4-[2-(2-benzyl-1H-benzimidazol-5-yl)imidazo[1,2-a]pyridin-3-yl]pyrimidin-2-yl}amino)-3-methoxyphenyl]amino}-2-methylpropan-2-ol], the half-inhibitory concentration (IC50) was in the range of 10 to 50 nM.
On to `COc1cc(N(C)CCO)ccc1Nc1nccc(-c2c(-c3ccc4nc(Cc5ccccc5)[nH]c4c3)nc3ccccn23)n1` [Example 48, 2-[[4-({4-[2-(2-benzyl-1H-benzimidazol-6-yl)imidazo[1,2-a]pyridin-3-yl]pyrimidin-2-yl}amino)-3-methoxyphenyl](methyl)amino]ethanol], for which the IC50 lay in the range of 10 to 50 nM.
On to `COc1cc(NCC(=O)O)ccc1Nc1nccc(-c2c(-c3ccc4[nH]c(Cc5ccccc5)nc4c3)nc3ccccn23)n1` [Example 49, N-[4-({4-[2-(2-benzyl-1H-benzimidazol-5-yl)imidazo[1,2-a]pyridin-3-yl]pyrimidin-2-yl}amino)-3-methoxyphenyl]glycine], for which the IC50 was in the range of 10 to 50 nM.
Take `COc1ccc(CN(C)CCO)cc1Nc1nccc(-c2c(-c3ccc4nc(Cc5ccccc5)[nH]c4c3)nc3ccccn23)n1` [Example 50, 2-[[3-({4-[2-(2-benzyl-1H-benzimidazol-6-yl)imidazo[1,2-a]pyridin-3-yl]pyrimidin-2-yl}amino)-4-methoxybenzyl](methyl)amino]ethanol]: the IC50 is 10 to 50 nM.
On to `CN(C)CC(=O)Nc1cccc(Nc2nccc(-c3c(-c4ccc5nc(Cc6ccccc6)[nH]c5c4)nc4ccccn34)n2)c1` [Example 51, N^1-[3-({4-[2-(2-benzyl-1H-benzimidazol-6-yl)imidazo[1,2-a]pyridin-3-yl]pyrimidin-2-yl}amino)phenyl]-N^2,N^2-dimethylglycinamide], for which the concentration for half-maximal inhibition (IC50) was less than 10 nM.
Under `COc1cc(N2CCC(N(C)C)CC2)ccc1Nc1nccc(-c2c(-c3ccc4nc(Cc5ccccc5C(F)(F)F)[nH]c4c3)nc3sccn23)n1` [Example 52, N-{4-[4-(dimethylamino)piperidin-1-yl]-2-methoxyphenyl}-4-(6-{2-[2-(trifluoromethyl)benzyl]-1H-benzimidazol-6-yl}imidazo[2,1-b][1,3]thiazol-5-yl)pyrimidin-2-amine] stands less than 10 nM; under `COc1ccc(NC(=O)CN(C)C)cc1Nc1nccc(-c2c(-c3ccc4nc(Cc5ccccc5)[nH]c4c3)nc3ccccn23)n1` [Example 53, N^1-[3-({4-[2-(2-benzyl-1H-benzimidazol-6-yl)imidazo[1,2-a]pyridin-3-yl]pyrimidin-2-yl}amino)-4-methoxyphenyl]-N^2,N^2-dimethylglycinamide], less than 10 nM.
